Test results reported in US20250154109A1, “SODIUM CHANNEL BLOCKING COMPOUNDS, DERIVATIVES THEREOF, AND METHODS OF THEIR USE” (LATIGO BIOTHERAPEUTICS, INC, priority 2022, published 2025).
Where two headings read alike, the source gives them in different places.

Experiments:
[1] = test system: rat plasma protein; assay: Rat plasma protein binding by equilibrium dialysis; format: in vitro ADME; conditions: for Rat Plasma, Unbound %: equilibrium dialysis; for Fold increase vs Comparator (rat plasma unbound): ratio of unbound % sulfoximine / comparator sulfonamide
Source text: (§1) Table 3 presents the human and rat plasma protein binding data (% unbound) for the compounds of Table 2.
(§2) Comparator compounds A, B, C have been previously reported as inhibitors of Na, 1.8 in WO2020/092667. Comparator D, not previously reported, is offered as an additional sulfonamido example.

[2] = test system: human plasma protein; assay: Human plasma protein binding by equilibrium dialysis; format: in vitro ADME; conditions: for Human Plasma, Unbound %: equilibrium dialysis; for Fold increase vs Comparatror (human plasma unbound): ratio of unbound % sulfoximine / comparator sulfonamide
Source text: as §1, §2

[3] = target: human Nav1.8 (Homo sapiens, UniProt Q9Y5Y9); assay: SyncroPatch384PE assay (automated patch clamp); format: cell-based; conditions: human Nav1.8/b3 CHO cells
human Nav1.8, sequence (Q9Y5Y9 whole entry): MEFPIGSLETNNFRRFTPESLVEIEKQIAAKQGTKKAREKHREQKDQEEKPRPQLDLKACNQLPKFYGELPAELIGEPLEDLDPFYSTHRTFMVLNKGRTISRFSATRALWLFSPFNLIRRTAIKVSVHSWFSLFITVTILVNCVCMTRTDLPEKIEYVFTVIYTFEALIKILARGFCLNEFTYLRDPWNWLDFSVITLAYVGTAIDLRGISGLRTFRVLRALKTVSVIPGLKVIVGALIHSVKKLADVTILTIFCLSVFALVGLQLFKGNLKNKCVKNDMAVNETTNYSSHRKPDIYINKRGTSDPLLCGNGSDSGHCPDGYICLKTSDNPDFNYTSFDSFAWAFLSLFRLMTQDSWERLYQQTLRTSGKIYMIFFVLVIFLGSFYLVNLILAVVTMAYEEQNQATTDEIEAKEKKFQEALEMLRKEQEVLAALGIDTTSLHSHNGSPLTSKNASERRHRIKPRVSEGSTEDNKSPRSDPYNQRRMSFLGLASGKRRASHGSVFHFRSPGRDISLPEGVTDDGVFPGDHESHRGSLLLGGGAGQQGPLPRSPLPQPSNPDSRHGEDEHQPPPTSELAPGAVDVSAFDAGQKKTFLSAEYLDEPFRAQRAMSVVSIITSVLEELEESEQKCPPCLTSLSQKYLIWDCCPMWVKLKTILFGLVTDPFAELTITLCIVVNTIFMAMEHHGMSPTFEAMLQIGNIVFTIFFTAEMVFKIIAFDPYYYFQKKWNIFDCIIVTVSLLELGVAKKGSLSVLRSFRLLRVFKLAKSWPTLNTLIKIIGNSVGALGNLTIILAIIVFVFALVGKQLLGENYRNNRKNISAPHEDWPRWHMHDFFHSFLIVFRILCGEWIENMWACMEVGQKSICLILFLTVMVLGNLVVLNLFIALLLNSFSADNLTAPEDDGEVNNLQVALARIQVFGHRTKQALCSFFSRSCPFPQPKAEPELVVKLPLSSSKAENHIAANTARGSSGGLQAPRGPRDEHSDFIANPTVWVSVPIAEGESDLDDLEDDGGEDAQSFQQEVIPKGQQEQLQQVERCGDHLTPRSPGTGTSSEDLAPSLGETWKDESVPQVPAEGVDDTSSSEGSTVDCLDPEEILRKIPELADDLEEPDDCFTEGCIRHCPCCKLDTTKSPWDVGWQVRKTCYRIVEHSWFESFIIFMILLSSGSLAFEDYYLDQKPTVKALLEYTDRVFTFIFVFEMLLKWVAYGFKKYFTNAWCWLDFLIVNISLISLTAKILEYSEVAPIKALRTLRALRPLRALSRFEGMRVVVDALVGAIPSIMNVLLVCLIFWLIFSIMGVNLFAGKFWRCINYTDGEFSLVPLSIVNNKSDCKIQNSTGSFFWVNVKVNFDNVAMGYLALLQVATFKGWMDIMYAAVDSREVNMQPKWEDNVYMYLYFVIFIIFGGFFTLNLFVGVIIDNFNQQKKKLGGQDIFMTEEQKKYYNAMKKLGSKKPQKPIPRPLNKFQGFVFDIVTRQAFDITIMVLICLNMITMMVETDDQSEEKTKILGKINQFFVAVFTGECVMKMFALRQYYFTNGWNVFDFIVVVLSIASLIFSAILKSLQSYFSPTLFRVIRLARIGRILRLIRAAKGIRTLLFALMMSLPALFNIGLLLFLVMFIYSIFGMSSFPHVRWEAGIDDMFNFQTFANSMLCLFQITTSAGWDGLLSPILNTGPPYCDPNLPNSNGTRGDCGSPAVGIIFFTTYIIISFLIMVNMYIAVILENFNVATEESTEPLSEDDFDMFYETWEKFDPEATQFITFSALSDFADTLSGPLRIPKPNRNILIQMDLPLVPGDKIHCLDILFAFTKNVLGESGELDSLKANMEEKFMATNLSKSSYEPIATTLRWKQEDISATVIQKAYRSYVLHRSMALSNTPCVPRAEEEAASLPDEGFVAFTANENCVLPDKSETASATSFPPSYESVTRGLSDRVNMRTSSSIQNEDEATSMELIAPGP

[4] = inactivated state block (P2 measurement), read-out: P2 IC50
[5] = resting state block (P1 measurement), read-out: P1 IC50

SMILES	Rat Plasma, Unbound % [1] [%]	Fold increase vs Comparator (rat plasma unbound) [1] [×]	Human Plasma, Unbound % [2] [%]	IC50 [3, 4] [nM]	IC50 [3, 5] [nM]	Fold increase vs Comparatror (human plasma unbound) [2] [×]
CS(=N)(=O)c1cccc(NC(=O)c2cc(C(F)(F)F)nnc2N2CCCC(F)(F)CC2)c1 (stereo not drawn) [Compound E]	37.8	2.4				
Cc1nc(N2CCCC(F)(F)CC2)c(C(=O)Nc2cccc(S(N)(=O)=O)c2)cc1C(F)(F)F [Compound D, reference compound]	0.31		0.31			
Cc1nc(N2CCCC(F)(F)CC2)c(C(=O)Nc2cccc([S@](C)(=N)=O)c2)cc1C(F)(F)F [Example 4, (R)-2-(4,4-difluoroazepan-1-yl)-6-methyl-N-(3-(S-methylsulfonimidoyl)phenyl)-5-(trifluoromethyl)nicotinamide]	1.9	6.1	0.9	≤ 5	≤ 5	2.9
Cc1nc(N2CCCC(F)(F)CC2)c(C(=O)Nc2ccnc(S(C)(=N)=O)c2)cc1C(F)(F)F (stereo not drawn) [Example 101, 2-(4,4-difluoroazepan-1-yl)-6-methyl-N-(2-(S-methylsulfonimidoyl)pyridin-4-yl)-5-(trifluoromethyl)nicotinamide]	3.55	6.8	1.8	≤ 5	≤ 5	7.5
NS(=O)(=O)c1cccc(NC(=O)c2cc(C(F)(F)F)nnc2N2CCCC(F)(F)CC2)c1 [Compound B, reference compound]	15.8		17.4			
Cc1nc(N2CCCC(F)(F)CC2)c(C(=O)Nc2ccnc(S(N)(=O)=O)c2)cc1C(F)(F)F [Compound A, reference compound]	0.52		0.24			
Cc1nc(N2CCCC(F)(F)CC2)c(C(=O)Nc2cccc(S(C)(=N)=O)c2)cc1Cl (stereo in doubt) [Example 17, (S)-5-Chloro-2-(4,4-difluoroazepan-1-yl)-6-methyl-N-(3-(S-methylsulfonimidoyl)phenyl)nicotinamide]	3.0	1.9	1.7		≤ 5	3.2
Cc1nc(N2CCCC(F)(F)CC2)c(C(=O)Nc2ccnc(S(N)(=O)=O)c2)cc1Cl [Compound C, reference compound]	1.62		0.53			
